# Measurements published in ChEMBL document CHEMBL1123025, “Acylmorphinans. A novel class of potent analgesic agents” (J Med Chem, 1985).
# Key:
# Mus musculus [1] = assay: Analgesic activity in mice after oral administration in writhing assay; 13.71-42.00; format: functional
# Mus musculus [2] = assay: Analgesic activity in mice after subcutaneous administration in writhing assay; 1.21-3.91; format: functional; settings: sc
# Opioid receptor = Opioid receptor (Rattus norvegicus, UniProt P33533+P34975+P33535); assay: 50% Inhibition of stereospecific [3H]-naltrexone (10e-9 M) binding towards opiate receptor in rat brain homogenate; format: tissue-based
# Mus musculus [3] = assay: Analgesic activity in mice after subcutaneous administration in tail-flicking assay; activity value ranges from 3.0 - 5.4; format: functional; settings: sc
# Mus musculus [4] = assay: Analgesic activity in mice after subcutaneous administration in writhing assay; 0.06-0.22; format: functional; settings: sc
# Mus musculus [5] = assay: Analgesic activity in mice after oral administration in writhing assay; 0.70-2.80; format: functional
# Mus musculus [6] = assay: Analgesic activity in mice after oral administration in tail-flicking assay; 7.22-10.25; format: functional
# Mus musculus [7] = organism: Mus musculus; assay: animal or person; settings: sc
# Description: Analgesic activity in mice after subcutaneous administration in writhing assay; 0.26-0.83
compound,measurement,setting,value
COc1ccc2c3c1O[C@H]1[C@@H](O)C=C[C@H]4[C@@H](C2)N(C)CC[C@@]341.COc1ccc2c3c1O[C@H]1[C@@H](O)C=C[C@H]4[C@@H](C2)N(C)CC[C@@]341.O.O=P(O)(O)O.O=P(O)(O)O [CODEINE PHOSPHATE],ED50,Mus musculus [1],24 mg/kg
same,ED50,Mus musculus [2],2.3 mg/kg
CC(O)c1ccc2c(c1)[C@@]13CCCC[C@H]1[C@@H](C2)N(C)CC3.Cl (some centres not stated),IC50,Opioid receptor,14 nM
CC(=O)c1ccc2c(c1)[C@@]13CCCC[C@H]1[C@@H](C2)N(C)CC3,IC50,Opioid receptor,210 nM
same,ED50,Mus musculus [3],4 mg/kg
CN1CC[C@]23CCCC[C@H]2[C@H]1Cc1ccc(O)cc13 [LEVORPHANOL],ED50,Mus musculus [4],0.11 mg/kg
same,ED50,Mus musculus [5],1.4 mg/kg
same,IC50,Opioid receptor,0.004 nM
same,ED50,Mus musculus [6],8.5 mg/kg
CN1CC[C@]23c4c5ccc(O)c4O[C@H]2[C@@H](O)C=C[C@H]3[C@H]1C5 [MORPHINE],ED50,Mus musculus [7],0.46 mg/kg
CC(=O)c1ccc2c(c1)C[C@@H]1[C@@H]3CCCC[C@]23CCN1C,IC50,Opioid receptor,13000 nM
CC(=O)c1ccc2c(c1)[C@@]13CCCC[C@H]1[C@@H](C2)N(CC1CC1)CC3.Cl,IC50,Opioid receptor,70 nM
